This note sets out measurements from patent publication US20150209364A1, “METHOD FOR TREATING EPIDERMOID CARCINOMA” (Johnpro Biotech Inc., priority 2011, published 2015).

For this test, the system named is erlotinib-resistant H1975 cells. Description: cells. The format is cell-based. The settings on record: Homo sapiens, NCI-H1975, 72 h, read-out: IC50 (cell viability). The protocol:
The cells were plated at 5×10^4/ml in 100 μL of culture medium in a 96-well microtiter plate, followed by incubation with drugs. Cell viability after the treatment was determined using 3-(4,5-dimethylthiazol-2-yl)-5(3-carboxymethoxy-phenyl)-2-(4-sulfophenyl)-2H-tetrazolium (MTS) assay (Promega, Madison, Wis.) per the manufacturer's instruction. Absorbance was measured at 490 nm for MTS assay with an enzyme-linked immunosorbent assay plate reader from MTX Lab Systems, Inc. (Vienna, Va.). […] Each experiment was performed in triplicate, and the results were expressed as mean±SD.

SMILES strings stand for the structures.

For orientation: IC50 means the concentration needed to halve the response being measured. As to `CCN(CC)CCCC(C)Nc1ccnc2cc(Cl)ccc12` (stereo not shown) [chloroquine], the IC50 was 75 µM.
